dTm data for one compound are collected here from article PMC10070484, “Structure and mechanism of oxalate transporter OxlT in an oxalate-degrading bacterium in the gut microbiota” (Nature Communications, 2023).

What all share (experiment): GFP thermal shift (GFP-TS)
Format in all cases: binding
Common to all, as to settings: 3 mM potassium oxalate; crude DDM-solubilised OxlT-GFPuv from E. coli membranes; 300 mM potassium acetate, pH 7.0

For experiment [1], the target named is T1, OxlT (Oxalobacter formigenes, UniProt Q51330, Q34A).
T1 construct: full-length; C-terminal nona-His tag from E. coli XL3 (crystal, purified); C-terminal GFPuv fusion from E. coli BL21(DE3) in DDM (GFP-TS); pRSF-OxlT for transport; monomer

The target in experiment [2] is T2, OxlT (Oxalobacter formigenes, UniProt Q51330, W324A).
T2 construct: full-length; C-terminal nona-His tag from E. coli XL3 (crystal, purified); C-terminal GFPuv fusion from E. coli BL21(DE3) in DDM (GFP-TS); pRSF-OxlT for transport; monomer

Experiment [3] deals with T3, OxlT (Oxalobacter formigenes, UniProt Q51330, R272A).
T3 construct: full-length; C-terminal nona-His tag from E. coli XL3 (crystal, purified); C-terminal GFPuv fusion from E. coli BL21(DE3) in DDM (GFP-TS); pRSF-OxlT for transport; monomer

For experiment [4], the target named is T4, OxlT (Oxalobacter formigenes, UniProt Q51330, Y150A).
T4 construct: full-length; C-terminal nona-His tag from E. coli XL3 (crystal, purified); C-terminal GFPuv fusion from E. coli BL21(DE3) in DDM (GFP-TS); pRSF-OxlT for transport; monomer

Experiment [5] deals with T5, OxlT (Oxalobacter formigenes, UniProt Q51330, Y124A).
T5 construct: full-length; C-terminal nona-His tag from E. coli XL3 (crystal, purified); C-terminal GFPuv fusion from E. coli BL21(DE3) in DDM (GFP-TS); pRSF-OxlT for transport; monomer

Experiment [6] addresses T6, OxlT (Oxalobacter formigenes, UniProt Q51330).
T6 construct: full-length; C-terminal nona-His tag from E. coli XL3 (crystal, purified); C-terminal GFPuv fusion from E. coli BL21(DE3) in DDM (GFP-TS); pRSF-OxlT for transport; monomer
T6 sequence (Q51330 1-418): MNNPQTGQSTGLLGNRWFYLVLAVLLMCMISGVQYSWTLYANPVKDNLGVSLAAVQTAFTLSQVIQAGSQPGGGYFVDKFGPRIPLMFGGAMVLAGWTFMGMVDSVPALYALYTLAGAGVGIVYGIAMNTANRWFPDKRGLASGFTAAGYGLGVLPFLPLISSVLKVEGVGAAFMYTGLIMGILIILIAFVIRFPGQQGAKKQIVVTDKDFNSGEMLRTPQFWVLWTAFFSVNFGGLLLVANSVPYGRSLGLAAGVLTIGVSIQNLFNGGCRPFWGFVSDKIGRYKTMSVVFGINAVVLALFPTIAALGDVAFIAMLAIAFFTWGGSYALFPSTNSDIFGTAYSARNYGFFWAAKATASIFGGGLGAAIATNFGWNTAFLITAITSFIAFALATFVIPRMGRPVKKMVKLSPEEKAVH

For experiment [7], the target named is T7, OxlT (Oxalobacter formigenes, UniProt Q51330, K355Q).
T7 construct: full-length; C-terminal nona-His tag from E. coli XL3 (crystal, purified); C-terminal GFPuv fusion from E. coli BL21(DE3) in DDM (GFP-TS); pRSF-OxlT for transport; monomer

Experiment [8] deals with T8, OxlT (Oxalobacter formigenes, UniProt Q51330, Y35A).
T8 construct: full-length; C-terminal nona-His tag from E. coli XL3 (crystal, purified); C-terminal GFPuv fusion from E. coli BL21(DE3) in DDM (GFP-TS); pRSF-OxlT for transport; monomer

The target in experiment [9] is T9, OxlT (Oxalobacter formigenes, UniProt Q51330, Y328A).
T9 construct: full-length; C-terminal nona-His tag from E. coli XL3 (crystal, purified); C-terminal GFPuv fusion from E. coli BL21(DE3) in DDM (GFP-TS); pRSF-OxlT for transport; monomer

Experiment [10] deals with T10, OxlT (Oxalobacter formigenes, UniProt Q51330, N268A).
T10 construct: full-length; C-terminal nona-His tag from E. coli XL3 (crystal, purified); C-terminal GFPuv fusion from E. coli BL21(DE3) in DDM (GFP-TS); pRSF-OxlT for transport; monomer

In experiment [11] the target is T11, OxlT (Oxalobacter formigenes, UniProt Q51330, W352A).
T11 construct: full-length; C-terminal nona-His tag from E. coli XL3 (crystal, purified); C-terminal GFPuv fusion from E. coli BL21(DE3) in DDM (GFP-TS); pRSF-OxlT for transport; monomer

Molecules are shown by their SMILES.

T3 sequence (Q51330 whole entry R272A, the tested form may be a part): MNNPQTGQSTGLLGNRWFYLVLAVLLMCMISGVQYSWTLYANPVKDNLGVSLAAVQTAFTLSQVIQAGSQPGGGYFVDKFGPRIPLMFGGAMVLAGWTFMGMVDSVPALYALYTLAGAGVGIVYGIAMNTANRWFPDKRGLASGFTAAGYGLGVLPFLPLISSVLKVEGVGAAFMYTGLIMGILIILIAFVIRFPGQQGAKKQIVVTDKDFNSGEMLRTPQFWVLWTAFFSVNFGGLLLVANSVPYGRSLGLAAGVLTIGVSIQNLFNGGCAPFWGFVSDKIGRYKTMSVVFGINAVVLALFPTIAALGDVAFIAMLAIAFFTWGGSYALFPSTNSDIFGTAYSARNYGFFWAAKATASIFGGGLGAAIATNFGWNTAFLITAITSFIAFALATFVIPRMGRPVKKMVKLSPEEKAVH
T11 sequence (Q51330 whole entry W352A, the tested form may be a part): as the sequence (Q51330 whole entry R272A, the tested form may be a part) above, with A272R, W352A counted along it
T1 sequence (Q51330 whole entry Q34A, the tested form may be a part): as the sequence (Q51330 whole entry R272A, the tested form may be a part) above, with Q34A, A272R counted along it
T2 sequence (Q51330 whole entry W324A, the tested form may be a part): as the sequence (Q51330 whole entry R272A, the tested form may be a part) above, with A272R, W324A counted along it
T10 sequence (Q51330 whole entry N268A, the tested form may be a part): as the sequence (Q51330 whole entry R272A, the tested form may be a part) above, with N268A, A272R counted along it
T9 sequence (Q51330 whole entry Y328A, the tested form may be a part): as the sequence (Q51330 whole entry R272A, the tested form may be a part) above, with A272R, Y328A counted along it
T5 sequence (Q51330 whole entry Y124A, the tested form may be a part): as the sequence (Q51330 whole entry R272A, the tested form may be a part) above, with Y124A, A272R counted along it
T4 sequence (Q51330 whole entry Y150A, the tested form may be a part): as the sequence (Q51330 whole entry R272A, the tested form may be a part) above, with Y150A, A272R counted along it
T8 sequence (Q51330 whole entry Y35A, the tested form may be a part): as the sequence (Q51330 whole entry R272A, the tested form may be a part) above, with Y35A, A272R counted along it
T7 sequence (Q51330 whole entry K355Q, the tested form may be a part): as the sequence (Q51330 whole entry R272A, the tested form may be a part) above, with A272R, K355Q counted along it

`O=C(O)C(=O)O` [oxalate]: the dTm entry on OxlT [1] was “reduced in the mutant OxlT proteins Q34A, Y35A, Y124A, Y150A, N268A, R272A, W324A and K355Q”; at OxlT [2], “reduced in the mutant OxlT proteins Q34A, Y35A, Y124A, Y150A, N268A, R272A, W324A and K355Q”; at OxlT [3], “reduced in the mutant OxlT proteins Q34A, Y35A, Y124A, Y150A, N268A, R272A, W324A and K355Q”; at OxlT [4], “reduced in the mutant OxlT proteins Q34A, Y35A, Y124A, Y150A, N268A, R272A, W324A and K355Q”; at OxlT [5], “reduced in the mutant OxlT proteins Q34A, Y35A, Y124A, Y150A, N268A, R272A, W324A and K355Q”; on OxlT [6], “In the GFP-TS assay, wild-type OxlT exhibited thermal stabilisation upon oxalate binding”. For the same compound, the dTm entry on OxlT [7] is “reduced in the mutant OxlT proteins Q34A, Y35A, Y124A, Y150A, N268A, R272A, W324A and K355Q”; on OxlT [8], “reduced in the mutant OxlT proteins Q34A, Y35A, Y124A, Y150A, N268A, R272A, W324A and K355Q”; at OxlT [9], “Y328A and W352A showed similar oxalate binding but reduced oxalate uptake activities”; at OxlT [10], “reduced in the mutant OxlT proteins Q34A, Y35A, Y124A, Y150A, N268A, R272A, W324A and K355Q”; at OxlT [11], “Y328A and W352A showed similar oxalate binding but reduced oxalate uptake activities”.
